According to ChEMBL document CHEMBL1201862, “PubChem BioAssay data set” (2004):
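Each compound was tested at five concentrations against cells in 96-well plates for 48 hours. GI50: concentration for 50% inhibition of growth.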 The source made the active and inactive calls. Cut-off read from the data, not from the text of the source: active = GI50 up to about 1.1 µM and inactive = higher.

What was measured:
Experiment in all cases: NCI anticancer screen, dose series, 48 h
RXF 393 = tested on: RXF 393
OVCAR-4 = tested on: OVCAR-4
IGROV-1 = tested on: IGROV-1
SK-MEL-5 = tested on: SK-MEL-5
HCT-15 = tested on: HCT-15
K562 = tested on: K562
HL-60 = tested on: HL-60
NCI-H460 = tested on: NCI-H460
A498 = tested on: A498
COLO 205 = tested on: COLO 205
UO-31 = tested on: UO-31
HCC 2998 = tested on: HCC 2998
SR = tested on: SR
Malme-3M = tested on: Malme-3M
OVCAR-5 = tested on: OVCAR-5
CAKI-1 = tested on: CAKI-1

Structure (SMILES)	GI50 (RXF 393)	GI50 (OVCAR-4)	GI50 (IGROV-1)	GI50 (SK-MEL-5)	GI50 (HCT-15) [µM]	GI50 (K562)	GI50 (HL-60)	GI50 (NCI-H460)	GI50 (A498)	GI50 (COLO 205)	GI50 (UO-31)	GI50 (HCC 2998)	GI50 (SR)	GI50 (Malme-3M)	GI50 (OVCAR-5)	GI50 (CAKI-1)
O=C1O[C@@H](c2ccc3c(c2)OCO3)C2C(=O)O[C@@H](c3ccc4c(c3)OCO4)C12 (stereo not given in full)	> 100 µM (inactive)	> 100 µM (inactive)	> 100 µM (inactive)	> 100 µM (inactive)	> 100	> 100 µM (inactive)	> 100 µM (inactive)	> 100 µM (inactive)	> 100 µM (inactive)	> 100 µM (inactive)	> 100 µM (inactive)	> 100 µM (inactive)	–	–	–	–
COC(=O)C(CCC1(C)OCCO1)=[N+]=[N-]	> 100 µM (inactive)	> 100 µM (inactive)	> 100 µM (inactive)	> 100 µM (inactive)	> 100	> 100 µM (inactive)	> 100 µM (inactive)	> 100 µM (inactive)	> 100 µM (inactive)	> 100 µM (inactive)	> 100 µM (inactive)	> 100 µM (inactive)	> 100 µM (inactive)	> 100 µM (inactive)	> 100 µM (inactive)	–
Cc1cccc(NC(=O)CSc2nnc(-c3ccc(/N=C\c4ccc(Cl)cc4)cc3)o2)c1	60.4 µM (inactive)	69.2 µM (inactive)	–	> 100 µM (inactive)	> 100	> 100 µM (inactive)	> 100 µM (inactive)	> 100 µM (inactive)	–	> 100 µM (inactive)	> 100 µM (inactive)	–	> 100 µM (inactive)	> 100 µM (inactive)	–	–
CCOC(=O)C(C)c1cc(C2(C)OCCO2)c(C)o1 (stereo not given)	> 100 µM (inactive)	> 100 µM (inactive)	> 100 µM (inactive)	> 100 µM (inactive)	> 100	> 100 µM (inactive)	> 100 µM (inactive)	> 100 µM (inactive)	–	> 100 µM (inactive)	> 100 µM (inactive)	> 100 µM (inactive)	–	> 100 µM (inactive)	> 100 µM (inactive)	–
CC1=C(/C=C/C(C)=C/C2CC(N(C)C)=CC(=O)O2)C(C)(C)CCC1 (stereo not given)	14.9 µM (inactive)	16 µM (inactive)	14.8 µM (inactive)	5.45 µM (inactive)	–	3.56 µM (inactive)	1.44 µM (inactive)	17.7 µM (inactive)	14.9 µM (inactive)	14.1 µM (inactive)	10.7 µM (inactive)	13.6 µM (inactive)	8.09 µM (inactive)	14.4 µM (inactive)	11.6 µM (inactive)	22.2 µM (inactive)
CCOC(=O)NC(=O)c1cn(CCCCCCCCCCC(=O)NCCCN2CCN(CCCNC(=O)CCCCCCCCCCn3cc(C(=O)NC(=O)OCC)c(=O)[nH]c3=O)CC2)c(=O)[nH]c1=O	–	–	–	–	> 100	> 100 µM (inactive)	> 100 µM (inactive)	> 100 µM (inactive)	> 100 µM (inactive)	> 100 µM (inactive)	> 100 µM (inactive)	> 100 µM (inactive)	> 100 µM (inactive)	> 100 µM (inactive)	> 100 µM (inactive)	> 10 µM (inactive)
CCCCCCCCCCCCOC(=S)NCCCC	23.8 µM (inactive)	25.8 µM (inactive)	25.6 µM (inactive)	–	19.5	19.3 µM (inactive)	18.5 µM (inactive)	24.4 µM (inactive)	20 µM (inactive)	–	3.37 µM (inactive)	18 µM (inactive)	19 µM (inactive)	26.6 µM (inactive)	19.8 µM (inactive)	–
CCOC(=O)N(c1ccccc1)N(CC)C(=O)/C(C)=N/Nc1ccc([N+](=O)[O-])cc1	13 µM (inactive)	19.7 µM (inactive)	17.3 µM (inactive)	–	16	14.7 µM (inactive)	11 µM (inactive)	–	14.3 µM (inactive)	17.2 µM (inactive)	14.8 µM (inactive)	18 µM (inactive)	21.7 µM (inactive)	17.6 µM (inactive)	–	–
CNC(=S)/N=C(\N)N(C)C	> 100 µM (inactive)	> 10 µM (inactive)	> 100 µM (inactive)	> 100 µM (inactive)	> 100	> 100 µM (inactive)	> 100 µM (inactive)	> 100 µM (inactive)	> 100 µM (inactive)	> 100 µM (inactive)	> 100 µM (inactive)	> 100 µM (inactive)	> 100 µM (inactive)	> 100 µM (inactive)	–	> 100 µM (inactive)
C/C(=N\NC(N)=S)c1ccc(/C(C)=N/NC(N)=S)cc1	> 100 µM (inactive)	–	> 100 µM (inactive)	> 100 µM (inactive)	> 100	> 100 µM (inactive)	> 100 µM (inactive)	> 100 µM (inactive)	> 100 µM (inactive)	> 100 µM (inactive)	> 100 µM (inactive)	> 100 µM (inactive)	> 100 µM (inactive)	> 100 µM (inactive)	> 100 µM (inactive)	–
c1ccc(-c2csc3ncn4cnnc4c23)cc1	–	75.5 µM (inactive)	77.8 µM (inactive)	58.1 µM (inactive)	95.3	> 100 µM (inactive)	86.1 µM (inactive)	–	–	> 100 µM (inactive)	48.3 µM (inactive)	> 100 µM (inactive)	–	–	–	–
Oc1c(-c2ccccc2)nc2ccccn12	> 100 µM (inactive)	> 100 µM (inactive)	> 100 µM (inactive)	> 100 µM (inactive)	–	> 100 µM (inactive)	> 100 µM (inactive)	> 100 µM (inactive)	> 100 µM (inactive)	–	> 100 µM (inactive)	> 100 µM (inactive)	> 100 µM (inactive)	> 100 µM (inactive)	> 100 µM (inactive)	> 100 µM (inactive)
CCOC(=O)[C@@]1(C)C=C2O[C@@H]3OC4(CCCCC4)O[C@@H]3C2=C2C(O)=CC=C(O)[C@]21C(=O)OC	–	> 68.1 µM (inactive)	> 68.1 µM (inactive)	> 68.1 µM (inactive)	> 68.1	51.1 µM (inactive)	33 µM (inactive)	> 68.1 µM (inactive)	> 68.1 µM (inactive)	> 68.1 µM (inactive)	> 68.1 µM (inactive)	> 68.1 µM (inactive)	–	> 68.1 µM (inactive)	> 68.1 µM (inactive)	51.4 µM (inactive)
CC(C)C(=O)N1Cc2cc(Cl)cc(Cl)c2OC(=O)c2ccccc21	–	28.8 µM (inactive)	29.5 µM (inactive)	19.2 µM (inactive)	27.5	51.1 µM (inactive)	22.6 µM (inactive)	33 µM (inactive)	27.5 µM (inactive)	59.3 µM (inactive)	31.7 µM (inactive)	28.4 µM (inactive)	–	20.9 µM (inactive)	27 µM (inactive)	22.8 µM (inactive)
CCCCCCCCCC(=O)CC(=O)c1c(O)cccc1O	27 µM (inactive)	49.7 µM (inactive)	32.3 µM (inactive)	–	–	27.7 µM (inactive)	21.4 µM (inactive)	34.5 µM (inactive)	–	18.7 µM (inactive)	35.1 µM (inactive)	44.6 µM (inactive)	–	35.2 µM (inactive)	22.9 µM (inactive)	33.2 µM (inactive)
